Columns and labels:
Type in all cases: toxicity, cell-based
Fibroblast = test: Incucyte cell viability with human fibroblast; details: 10 µM, compound concentration 10 uM
HEK-293T = test: Incucyte cell viability with HEK293T; details: human, 10 µM, compound concentration 10 uM
U2OS = test: Incucyte cell viability with U2OS; details: human, 10 µM, compound concentration 10 uM
[1] = 0 h, replicate number 1, timepoint 0 hours
[2] = 0 h, replicate number 2, timepoint 0 hours
[3] = 6 h, replicate number 2, timepoint 6 hours
[4] = 12 h, replicate number 2, timepoint 12 hours
[5] = 18 h, replicate number 2, timepoint 18 hours
[6] = 24 h, replicate number 2, timepoint 24 hours
[7] = 6 h, replicate number 1, timepoint 6 hours
[8] = 12 h, replicate number 1, timepoint 12 hours
[9] = 18 h, replicate number 1, timepoint 18 hours
[10] = 24 h, replicate number 1, timepoint 24 hours
Also: unitless GR value; below 1 slowed growth and below 0 cell loss.

SMILES: CC(C)c1cc(Oc2c(Cl)cc(-n3nc(C#N)c(=O)[nH]c3=O)cc2Cl)n[nH]c1=O [RESMETIROM]
- Growth Rate (Fibroblast; [1]): -0.06
- Growth Rate (Fibroblast; [2]): 0.82
- Growth Rate (Fibroblast; [3]): 0.58
- Growth Rate (Fibroblast; [4]): 0.74
- Growth Rate (Fibroblast; [5]): 0.87
- Growth Rate (Fibroblast; [6]): 0.85
- Growth Rate (HEK-293T; [1]): 0.01
- Growth Rate (HEK-293T; [2]): 0.23
- Growth Rate (HEK-293T; [7]): 0.99
- Growth Rate (HEK-293T; [8]): 0.77
- Growth Rate (HEK-293T; [5]): 0.96
- Growth Rate (HEK-293T; [6]): 0.86
- Growth Rate (U2OS; [1]): 0.87
- Growth Rate (U2OS; [2]): 0.06
- Growth Rate (U2OS; [7]): 0.7
- Growth Rate (U2OS; [3]): 0.54
- Growth Rate (U2OS; [4]): 0.75
- Growth Rate (U2OS; [9]): 0.83
- Growth Rate (U2OS; [5]): 0.79
- Growth Rate (U2OS; [10]): 0.99

SMILES: N#Cc1cc2c(OCC(O)CN3CCN(C(c4ccccc4)c4ccccc4)CC3)cccc2[nH]1 (racemic)
- Growth Rate (Fibroblast; [1]): -0.11
- Growth Rate (Fibroblast; [2]): 0.94
- Growth Rate (Fibroblast; [8]): 0.52
- Growth Rate (Fibroblast; [9]): -0.05
- Growth Rate (Fibroblast; [5]): 0.91
- Growth Rate (Fibroblast; [10]): 0.24
- Growth Rate (HEK-293T; [1]): 0.77
- Growth Rate (HEK-293T; [8]): 0.54
- Growth Rate (HEK-293T; [4]): 0.62
- Growth Rate (HEK-293T; [9]): 0.32
- Growth Rate (HEK-293T; [5]): 0.26
- Growth Rate (HEK-293T; [10]): 0.27
- Growth Rate (HEK-293T; [6]): 0.29
- Growth Rate (U2OS; [1]): -0.56
- Growth Rate (U2OS; [2]): -1

SMILES: N[C@@H](CCP(=O)(O)O)C(=O)O
- Growth Rate (Fibroblast; [7]): -0.06
- Growth Rate (Fibroblast; [8]): 0.45
- Growth Rate (HEK-293T; [1]): 0.99
- Growth Rate (HEK-293T; [3]): 0.79
- Growth Rate (HEK-293T; [4]): 0.88
- Growth Rate (HEK-293T; [6]): 0.78
- Growth Rate (U2OS; [2]): -1
- Growth Rate (U2OS; [7]): 0.67
- Growth Rate (U2OS; [8]): 0.39
- Growth Rate (U2OS; [9]): 0.86
- Growth Rate (U2OS; [5]): 0.78
- Growth Rate (U2OS; [6]): 0.97

SMILES: O=C1NC(NC23CC4CC(CC(C4)C2)C3)=N/C1=C\c1ccc2ncsc2c1
- Growth Rate (Fibroblast; [1]): -0.85
- Growth Rate (Fibroblast; [2]): 0.36
- Growth Rate (HEK-293T; [1]): -0.13
- Growth Rate (HEK-293T; [2]): -0.17
- Growth Rate (HEK-293T; [8]): 0.28
- Growth Rate (HEK-293T; [4]): 0.24
- Growth Rate (HEK-293T; [9]): 0.03
- Growth Rate (HEK-293T; [5]): 0.09
- Growth Rate (HEK-293T; [10]): 0.01
- Growth Rate (HEK-293T; [6]): 0.06
- Growth Rate (U2OS; [1]): -0.86
- Growth Rate (U2OS; [2]): -1
- Growth Rate (U2OS; [9]): 0.56
- Growth Rate (U2OS; [5]): 0.88
- Growth Rate (U2OS; [10]): 0.62
- Growth Rate (U2OS; [6]): 0.7

SMILES: CN(C)CCCOc1ccc(-c2cc(NCCCn3cccn3)nc(S(C)(=O)=O)n2)cc1
- Growth Rate (Fibroblast; [2]): 0.56
- Growth Rate (Fibroblast; [7]): 0.86
- Growth Rate (Fibroblast; [10]): 0.96
- Growth Rate (HEK-293T; [7]): 0.9
- Growth Rate (HEK-293T; [5]): 0.97
- Growth Rate (HEK-293T; [6]): 0.97
- Growth Rate (U2OS; [1]): 0.2
- Growth Rate (U2OS; [7]): 0.22
- Growth Rate (U2OS; [9]): 0.71
- Growth Rate (U2OS; [5]): 0.82
- Growth Rate (U2OS; [10]): 0.85

SMILES: O=c1ccn([C@@H]2O[C@H](COP(=O)([O-])OP(=O)([O-])OP(=O)([O-])O)[C@@H](O)[C@H]2O)c(=O)[nH]1.[Na+].[Na+].[Na+]
- Growth Rate (Fibroblast; [2]): 0.81
- Growth Rate (Fibroblast; [7]): 0.2
- Growth Rate (Fibroblast; [3]): 0.66
- Growth Rate (Fibroblast; [8]): 0.12
- Growth Rate (Fibroblast; [4]): 0.75
- Growth Rate (Fibroblast; [9]): 0.29
- Growth Rate (Fibroblast; [5]): 0.88
- Growth Rate (Fibroblast; [10]): 0.13
- Growth Rate (Fibroblast; [6]): 0.78
- Growth Rate (HEK-293T; [1]): 0.09
- Growth Rate (HEK-293T; [2]): 0.62
- Growth Rate (HEK-293T; [7]): 0.64
- Growth Rate (HEK-293T; [3]): 0.41
- Growth Rate (HEK-293T; [8]): 0.84
- Growth Rate (HEK-293T; [4]): 0.64
- Growth Rate (HEK-293T; [9]): 0.92
- Growth Rate (HEK-293T; [5]): 0.75
- Growth Rate (HEK-293T; [10]): 0.85
- Growth Rate (HEK-293T; [6]): 0.72
- Growth Rate (U2OS; [1]): 0.49
- Growth Rate (U2OS; [2]): 0.48
- Growth Rate (U2OS; [7]): 0.21
- Growth Rate (U2OS; [3]): 0.83
- Growth Rate (U2OS; [8]): 0.6
- Growth Rate (U2OS; [4]): 0.94
- Growth Rate (U2OS; [9]): 0.83
- Growth Rate (U2OS; [5]): 0.93
- Growth Rate (U2OS; [10]): 0.99
- Growth Rate (U2OS; [6]): 0.94

SMILES: C[C@]12N[C@H](Cc3ccccc31)c1ccccc12 [DIZOCILPINE]
- Growth Rate (Fibroblast; [2]): 0.6
- Growth Rate (Fibroblast; [7]): 0.45
- Growth Rate (Fibroblast; [8]): 0.08
- Growth Rate (Fibroblast; [9]): 0.43
- Growth Rate (Fibroblast; [10]): 0.25
- Growth Rate (HEK-293T; [4]): 0.84
- Growth Rate (HEK-293T; [5]): 0.88
- Growth Rate (HEK-293T; [6]): 1
- Growth Rate (U2OS; [7]): 0.6
- Growth Rate (U2OS; [3]): 0.81
- Growth Rate (U2OS; [4]): 0.75
- Growth Rate (U2OS; [9]): 0.97
- Growth Rate (U2OS; [5]): 0.93
- Growth Rate (U2OS; [6]): 0.98

SMILES: CN(C)C(=O)Cn1cc(-c2ccc(-c3nnc4ccccn34)cc2)cn1
- Growth Rate (Fibroblast; [1]): 0.68
- Growth Rate (Fibroblast; [2]): 0.31
- Growth Rate (Fibroblast; [8]): 0.37
- Growth Rate (Fibroblast; [4]): 0.94
- Growth Rate (Fibroblast; [9]): 0.8
- Growth Rate (Fibroblast; [5]): 0.91
- Growth Rate (Fibroblast; [10]): 0.56
- Growth Rate (Fibroblast; [6]): 0.74
- Growth Rate (HEK-293T; [1]): 0.69
- Growth Rate (HEK-293T; [7]): 0.7
- Growth Rate (HEK-293T; [8]): 0.74
- Growth Rate (HEK-293T; [9]): 0.88
- Growth Rate (HEK-293T; [10]): 0.78
- Growth Rate (U2OS; [1]): -0.47
- Growth Rate (U2OS; [2]): 0.08
- Growth Rate (U2OS; [7]): 0.68
- Growth Rate (U2OS; [8]): 0.46
- Growth Rate (U2OS; [9]): 0.79
- Growth Rate (U2OS; [5]): 0.91
- Growth Rate (U2OS; [10]): 0.83

SMILES: CN(C)C(=O)Cn1cc(-c2ccc(-c3cncc4ccccc34)cc2)cn1
- Growth Rate (Fibroblast; [8]): 0.27
- Growth Rate (Fibroblast; [4]): 1
- Growth Rate (Fibroblast; [9]): 0.21
- Growth Rate (Fibroblast; [5]): 0.82
- Growth Rate (Fibroblast; [10]): 0.05
- Growth Rate (Fibroblast; [6]): 0.61
- Growth Rate (HEK-293T; [1]): 0.84
- Growth Rate (HEK-293T; [8]): 0.97
- Growth Rate (HEK-293T; [9]): 0.9
- Growth Rate (HEK-293T; [10]): 0.9
- Growth Rate (U2OS; [1]): -0.34
- Growth Rate (U2OS; [2]): 0.27
- Growth Rate (U2OS; [7]): 0.31
- Growth Rate (U2OS; [3]): 0.79
- Growth Rate (U2OS; [8]): 0.43
- Growth Rate (U2OS; [4]): 0.74
- Growth Rate (U2OS; [9]): 0.59
- Growth Rate (U2OS; [5]): 0.76
- Growth Rate (U2OS; [10]): 0.7
- Growth Rate (U2OS; [6]): 0.86

SMILES: CCCCNNC(=O)c1ccc(Br)cc1
- Growth Rate (Fibroblast; [1]): 0.73
- Growth Rate (Fibroblast; [2]): 0.26
- Growth Rate (Fibroblast; [7]): -0.07
- Growth Rate (Fibroblast; [3]): 0.86
- Growth Rate (Fibroblast; [8]): 0.37
- Growth Rate (Fibroblast; [9]): 0.74
- Growth Rate (Fibroblast; [5]): 0.93
- Growth Rate (Fibroblast; [10]): 0.99
- Growth Rate (Fibroblast; [6]): 0.91
- Growth Rate (HEK-293T; [1]): 0.97
- Growth Rate (HEK-293T; [2]): 0.79
- Growth Rate (HEK-293T; [8]): 0.93
- Growth Rate (HEK-293T; [4]): 0.77
- Growth Rate (U2OS; [2]): -0.23
- Growth Rate (U2OS; [4]): 0.99
- Growth Rate (U2OS; [9]): 0.94
- Growth Rate (U2OS; [6]): 0.91
